Data published in ChEMBL document CHEMBL1135360, “The design and synthesis of a novel series of indole derived selective ET(A) antagonists” (Bioorg Med Chem Lett, 2002).

Tests used:
[1] = biological target: T1, Endothelin receptor type B (Homo sapiens, UniProt P24530); test: Binding affinity towards human cloned endothelin B receptor by [125I]ET1 displacement.
T1 sequence (P24530 whole entry): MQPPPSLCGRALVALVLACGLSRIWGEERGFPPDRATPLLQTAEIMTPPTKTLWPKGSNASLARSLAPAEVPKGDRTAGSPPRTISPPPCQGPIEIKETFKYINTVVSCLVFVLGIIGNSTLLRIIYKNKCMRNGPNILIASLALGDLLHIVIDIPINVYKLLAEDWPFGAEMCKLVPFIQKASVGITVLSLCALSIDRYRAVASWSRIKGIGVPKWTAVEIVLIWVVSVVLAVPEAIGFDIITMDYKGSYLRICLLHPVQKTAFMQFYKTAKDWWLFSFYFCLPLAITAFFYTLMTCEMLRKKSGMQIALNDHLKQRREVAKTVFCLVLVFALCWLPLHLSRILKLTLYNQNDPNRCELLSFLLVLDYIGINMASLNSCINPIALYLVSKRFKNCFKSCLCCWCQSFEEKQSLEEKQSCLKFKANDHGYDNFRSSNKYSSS

[2] = biological target: Endothelin receptor, ET-A/ET-B (Homo sapiens) (UniProt P24530+P25101); test: Ratio of binding affinity at Endothelin-A receptors compared to Endothelin-B receptors.; type: protein assay
[3] = biological target: T2, Endothelin-1 receptor (Homo sapiens, UniProt P25101); test: Displacement of [125I]-labeled ET-1 from human cloned endothelin A (ETA) receptor
T2 sequence (P25101 whole entry): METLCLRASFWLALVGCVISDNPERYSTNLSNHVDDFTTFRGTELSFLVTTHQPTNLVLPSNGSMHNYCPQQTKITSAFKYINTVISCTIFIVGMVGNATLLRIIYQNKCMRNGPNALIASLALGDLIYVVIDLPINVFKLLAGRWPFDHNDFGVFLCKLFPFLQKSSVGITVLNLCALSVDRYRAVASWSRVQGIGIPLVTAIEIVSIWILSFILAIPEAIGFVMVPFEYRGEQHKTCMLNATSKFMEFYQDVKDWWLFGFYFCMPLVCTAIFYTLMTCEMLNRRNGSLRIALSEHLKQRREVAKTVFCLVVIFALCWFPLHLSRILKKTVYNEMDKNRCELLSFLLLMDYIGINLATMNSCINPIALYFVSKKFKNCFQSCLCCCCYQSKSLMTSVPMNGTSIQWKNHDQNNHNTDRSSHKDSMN

**Q.** Which IC50 [1] does the source give for `CCn1cc(C(C(=O)NS(=O)(=O)c2ccc(C(C)C)cc2)c2ccc3c(c2)OCO3)c2ccc(C(=O)O)cc21` (stereo unspecified) here?
**A.** 2200 nM

**Q.** And the Ratio [2]?
**A.** 68.8

**Q.** What about the IC50 [3] of the same compound?
**A.** 32 nM

**Q.** Which IC50 [1] does the source give for `Cn1cc(C(C(=O)NS(=O)(=O)c2ccccc2C(=O)O)c2ccc3c(c2)OCO3)c2ccc(C(N)=O)cc21` (stereo unspecified) here?
**A.** 846 nM

**Q.** What about the Ratio [2] of the same compound?
**A.** 272

**Q.** What about the IC50 [3] of the same compound?
**A.** 3.1 nM

**Q.** `Cn1cc(C(C(=O)NS(=O)(=O)c2ccccc2)c2ccc3c(c2)OCO3)c2ccc(C(N)=O)cc21` (stereo unspecified) was tested. Which IC50 [1] did it give?
**A.** 2570 nM

**Q.** What about the Ratio [2] of the same compound?
**A.** 184

**Q.** And the IC50 [3]?
**A.** 12 nM

**Q.** What does the source list for `CC(C)c1ccc(S(=O)(=O)NC(=O)C(c2ccc3c(c2)OCO3)c2cn(C)c3cc(C(=O)O)ccc23)cc1` (stereo unspecified)?
**A.** IC50 [1]: 1500 nM; Ratio [2]: 68.2; IC50 [3]: 22 nM

**Q.** With `CC(C)c1ccc(S(=O)(=O)NC(=O)C(c2ccc3c(c2)OCO3)c2cn(C)c3cc(CN)ccc23)cc1` (stereo unspecified) as the compound, how does the IC50 [1] read?
**A.** 204 nM

**Q.** And the Ratio [2]?
**A.** 5.4

**Q.** What about the IC50 [3] of the same compound?
**A.** 38 nM

**Q.** Which IC50 [3] does the source give for `COC(=O)c1ccc2c(C(C(=O)NS(=O)(=O)c3ccc(C(C)C)cc3)c3ccc4c(c3)OCO4)cn(C)c2c1` (stereo unspecified) here?
**A.** 100 nM

**Q.** `Cn1cc(C(C(=O)NS(=O)(=O)c2ccc(Cl)cc2)c2ccc3c(c2)OCO3)c2ccc(C(N)=O)cc21` (stereo unspecified) was tested. Which IC50 [1] did it give?
**A.** 1100 nM

**Q.** What about the Ratio [2] of the same compound?
**A.** 146

**Q.** What about the IC50 [3] of the same compound?
**A.** 7.5 nM

**Q.** `Cc1ccccc1S(=O)(=O)NC(=O)C(c1ccc2c(c1)OCO2)c1cn(C)c2cc(C(N)=O)ccc12` (stereo unspecified) was tested. Which IC50 [1] did it give?
**A.** 1060 nM

**Q.** What about the Ratio [2] of the same compound?
**A.** 203

**Q.** What about the IC50 [3] of the same compound?
**A.** 5.2 nM

**Q.** `Cn1cc(C(C(=O)NS(=O)(=O)c2ccc(C(F)(F)F)cc2)c2ccc3c(c2)OCO3)c2ccc(C(N)=O)cc21` (stereo unspecified) was tested. Which IC50 [1] did it give?
**A.** 228 nM

**Q.** And the Ratio [2]?
**A.** 35

**Q.** What about the IC50 [3] of the same compound?
**A.** 6.5 nM

**Q.** Which IC50 [1] does the source give for `Cc1ccc(S(=O)(=O)NC(=O)C(c2ccc3c(c2)OCO3)c2cn(C)c3cc(C(N)=O)ccc23)cc1` (stereo unspecified) here?
**A.** 774 nM

**Q.** And the Ratio [2]?
**A.** 430

**Q.** And the IC50 [3]?
**A.** 1.8 nM

**Q.** Which IC50 [1] does the source give for `COc1ccc(S(=O)(=O)NC(=O)C(c2ccc3c(c2)OCO3)c2cn(C)c3cc(C(N)=O)ccc23)cc1` (stereo unspecified) here?
**A.** 94 nM

**Q.** And the Ratio [2]?
**A.** 34

**Q.** And the IC50 [3]?
**A.** 2.8 nM

**Q.** `CCn1cc(C(C(=O)NS(=O)(=O)c2ccc(C(C)C)cc2)c2ccc3c(c2)OCO3)c2ccc(C(=O)OC)cc21` (stereo unspecified) was tested. Which IC50 [3] did it give?
**A.** 210 nM

**Q.** Which IC50 [1] does the source give for `CCn1cc(C(C(=O)NS(=O)(=O)c2ccc(C(C)C)cc2)c2ccc3c(c2)OCO3)c2ccc(C(N)=O)cc21` (stereo unspecified) here?
**A.** 68 nM

**Q.** What about the Ratio [2] of the same compound?
**A.** 19.7

**Q.** And the IC50 [3]?
**A.** 3.5 nM

**Q.** Which IC50 [1] does the source give for `COc1cc(OC)nc(O[C@H](C(=O)O)C(OC)(c2ccccc2)c2ccccc2)n1` [DARUSENTAN] here?
**A.** 16 nM

**Q.** And the IC50 [3]?
**A.** 0.8 nM

**Q.** For `CC(C)c1ccc(S(=O)(=O)NC(=O)C(c2ccc3c(c2)OCO3)c2cn(C)c3cc(C(N)=O)ccc23)cc1` (stereo unspecified), which IC50 [1] is on record?
**A.** 34 nM

**Q.** What about the Ratio [2] of the same compound?
**A.** 14.8

**Q.** What about the IC50 [3] of the same compound?
**A.** 2.3 nM

**Q.** Which IC50 [1] does the source give for `COc1cc(C)ccc1S(=O)(=O)NC(=O)C(c1ccc2c(c1)OCO2)c1cn(C)c2cc(C(N)=O)ccc12` (stereo unspecified) here?
**A.** 302 nM

**Q.** And the Ratio [2]?
**A.** 275

**Q.** And the IC50 [3]?
**A.** 1.1 nM

**Q.** How did the IC50 [1] turn out when `CCOc1cc(C)ccc1S(=O)(=O)NC(=O)C(c1ccc2c(c1)OCO2)c1cn(C)c2cc(C(N)=O)ccc12` (stereo unspecified) was run?
**A.** 397 nM

**Q.** What about the Ratio [2] of the same compound?
**A.** 722

**Q.** And the IC50 [3]?
**A.** 0.55 nM

**Q.** Which IC50 [1] does the source give for `CCn1cc(C(C(=O)NS(=O)(=O)c2ccc(C(C)C)cc2)c2ccc3c(c2)OCO3)c2ccc(C(=O)N(C)C)cc21` (stereo unspecified) here?
**A.** 474 nM

**Q.** And the Ratio [2]?
**A.** 6.6

**Q.** What about the IC50 [3] of the same compound?
**A.** 72 nM

**Q.** With `CC(C)c1ccc(S(=O)(=O)NC(=O)C(c2ccc3c(c2)OCO3)c2cn(C)c3cc(C#N)ccc23)cc1` (stereo unspecified) as the compound, how does the IC50 [3] read?
**A.** 61 nM

**Q.** Which IC50 [3] does the source give for `CC(C)c1ccc(S(=O)(=O)NC(=O)C(c2ccc3c(c2)OCO3)c2cn(C)c3cc(-c4nn[nH]n4)ccc23)cc1` (stereo unspecified) here?
**A.** 35 nM

**Q.** Which IC50 [1] does the source give for `COc1ccccc1S(=O)(=O)NC(=O)C(c1ccc2c(c1)OCO2)c1cn(C)c2cc(C(N)=O)ccc12` (stereo unspecified) here?
**A.** 310 nM

**Q.** What about the Ratio [2] of the same compound?
**A.** 62

**Q.** What about the IC50 [3] of the same compound?
**A.** 5 nM

**Q.** `CC(C)c1ccc(S(=O)(=O)NC(=O)C(c2ccc3c(c2)OCO3)c2c[nH]c3cc(C(=O)O)ccc23)cc1` (stereo unspecified) was tested. Which IC50 [3] did it give?
**A.** 31 nM

**Q.** Which IC50 [1] does the source give for `CC(C)c1ccc(S(=O)(=O)NC(=O)C(c2ccc3c(c2)OCO3)c2cn(C)c3cc(CO)ccc23)cc1` (stereo unspecified) here?
**A.** 450 nM

**Q.** And the Ratio [2]?
**A.** 23.7

**Q.** What about the IC50 [3] of the same compound?
**A.** 19 nM

**Q.** For `CCn1cc(C(C(=O)NS(=O)(=O)c2ccc(C(C)C)cc2)c2ccc3c(c2)OCO3)c2ccc(C(=O)NC)cc21` (stereo unspecified), which IC50 [1] is on record?
**A.** 210 nM

**Q.** What about the Ratio [2] of the same compound?
**A.** 7

**Q.** What about the IC50 [3] of the same compound?
**A.** 30 nM
